These results are taken from patent US20240174728A1, “A USE OF A POLYPEPTIDE COMPOUND IN THE PREPARATION OF DRUGS FOR PREVENTING OR TREATING INFLAMMATORY BOWEL DISEASES AND RELATED INTESTINAL FIBROSIS” (Shenzhen Turier Biotech Co., Ltd., priority 2021, published 2024).

Starred links: 1 amine or outer side, 2 acyl side, 3 side chain; linkers in the order of their positions; H or OH if unused. Non-standard residues stand in square brackets, D forms with d. Groups on a side chain read outwards from the residue. Primed or numbered codes have the meaning given here. No end group written: not given here. *: point of attachment. C20 diacid = O=C(O)CCCCCCCCCCCCCCCCCCC(=O)*; γGlu = O=C(O)[C@H](CCC(=O)[*:2])N[*:1]; Iva = CC[C@](C)(N)C(=O)O; PEG2′ = not defined here; Aib = CC(C)(N)C(=O)O

In assay [1] the test system is DSS induced acute intestinal fibrosis model of mouse. Description: DSS induced acute intestinal fibrosis model of mouse (Example 2). To be noted: 3% DSS Day 1-7, compared with model group; for content of serum IL-6 (FIG. 7) / content of serum MMP-12 (FIG. 7) / collagenous fiber of colon tissues, Masson stained slice (FIG. 4A) / colon Ly-6g+ cells (neutrophile granulocyte infiltration), immunohistochemical staining (FIG. 6) / colon mucous layer α-SMA protein expression, immunohistochemical staining (FIG. 5): 120 μg/kg s.c. once/day; for content of serum IL-6 (FIG. 7) / content of serum MMP-12 (FIG. 7): 9th day serum, ##P≤0.01; for colon tissue morphology, HE stained slice (FIG. 3) / blue staining area of colon tissues, area ratio of blue collagen fibers to colon tissue in Masson staining (FIG. 4B): polypeptide 120 μg/kg s.c. or 6-TG 2 mg/kg p.o. once/day; for blue staining area of colon tissues, area ratio of blue collagen fibers to colon tissue in Masson staining (FIG. 4B): #P≤0.05. In kind it is in vivo, Balb/c mice. The text has this: The DSS in this example is purchased from MP Biomedicals (CAS No.: 9011-18-1), and the positive control compound 6-thioguanine (6-TG) is a compound based on prior art and is purchased from Shanghai Aladdin Biochemical Technology Co., Ltd. (CAS No.: 154-42-7).
(§1) After 7 days of adaptive feeding, 114 Balb/c mice of 6-8 weeks age (purchased from Guangdong Medical Laboratory Animal Center, with weight approx. 16-20 g) are subjected to the experiment. Then randomly put the mice into 19 groups, with 6 mice in each group. The groups are normal group, model group, 6-TG group and polypeptide compound groups 1-16.
Model the 19 groups of mice and administer the drug to them for 8 days. In the 8 days, the normal group is given normal drinking water and is given subcutaneous injection of PBS once every day. From Day 1 to Day 7, the model group drinks 3% DSS and is given subcutaneous injection of PBS once every day. On Day 8, 3% DSS is replaced with normal drinking water and subcutaneous injection of PBS is given once. From Day 1 to Day 7, the 6-TG group drinks 3% DSS and is given 2 mg/kg 6-TG by the means of gavage once every day. On Day 8, 3% DSS is replaced with normal drinking water and 2 mg/kg 6-TG is given by the means of gavage once. From Day 1 to Day 7, the polypeptide compound groups 1-16 drink 3% DSS and are given subcutaneous injection of 120 μg/kg polypeptide compounds 1-16 once every day. On Day 8, 3% DSS is replaced with normal drinking water and subcutaneous injection of 120 μg/kg polypeptide compounds 1-16 is given once.
In the drug administration period, the randomly selected polypeptide compound groups 3, 8, 11, 12, 13 and 14 and the normal group, model group and 6-TG group are used for testing, and the body weight, feces consistency and feces OB of the mice are recorded every day. The GraphPad Prism 8.3.0 software is used to plot the data into a diagram. Feces OB is measured by the benzidine method.
On the 9th day, all mice are killed. The serums and colon tissues of the mice are collected. The colon and cecum of the mice are removed together. The colon length is measured. The GraphPad Prism 8.3.0 software is used to plot the data into a diagram.
The serums of the mice from the randomly selected polypeptide compound groups 3, 8, 11, 12, 13 and 14 of the present invention and the normal group and model group are used for cytokine test.
The colons of the mice from the randomly selected polypeptide compound groups 3, 8, 11, 12, 13 and 14 and the normal group, model group and 6-TG group in the present invention are taken. Approx. 5 mm of intestinal segment is taken from the distal end of each colon and is fixed in 10% formalin. The specimens are fixed, dehydrated, wrapped in paraffin and sliced (5 μm). Then tissue HE staining, Masson staining, α-SMA α-SMA protein immunohistochemical staining and Ly-6g protein immunohistochemical staining are completed.

For assay [2], the system named is DSS induced chronic intestinal fibrosis model of mouse. The assay can be described thus: DSS induced chronic intestinal fibrosis model of mouse (Example 3, three cycles). In kind it is in vivo, Balb/c mice. Conditions: 2% DSS 5 days then water 2 weeks, 3 cycles, 120 μg/kg s.c. once/day, compared with model group; for blue staining area of colon tissues, area ratio of blue collagen fibers to colon tissue in Masson staining (FIG. 11B): #P≤0.05, ##P≤0.01; for content of serum IL-6 (FIG. 13) / content of serum MMP-8 (FIG. 13): serum at end of three cycles.
Text: as §1
In the whole process, the normal group is given normal drinking water and is given subcutaneous injection PBS once every day. The model group is first given 2% DSS for 5 days and then given normal drinking water for 2 weeks. This is 1 cycle. The cycle is done 3 times. Subcutaneous injection of PBS is given once every day. The 6-TG group is first given 2% DSS for 5 days and then given normal drinking water for 2 weeks. This is 1 cycle. The cycle is done 3 times. 2 mg/kg 6-TG is given by the means of gavage once every day. The polypeptide compound groups 1-16 are first given 2% DSS for 5 days and then given normal drinking water for 2 weeks. This is 1 cycle. The cycle is done 3 times. Subcutaneous injection of 120 μg/kg polypeptide compounds 1-16 is given once every day.
During the administration period, the polypeptide compound groups 3, 8, 11, 12, 13 and 14 and the normal group, model group and 6-TG group are randomly selected, and the body weight, feces consistency and feces OB of the mice are recorded every day. The GraphPad Prism 8.3.0 software is used to plot the data into a diagram.
After completion of the 3rd cycle, the mice are dissected. The serums and colon tissues of the mice are collected. The colon and cecum are removed together. The colon length is measured. The GraphPad Prism 8.3.0 software is used to plot the data into a diagram.
The serums of the mice from the randomly selected polypeptide compound groups 3, 8, 11, 12, 13 and 14 and the normal group and model group of the present invention are used for cytokine test.
The colons of the mice from the randomly selected polypeptide compound groups 3, 8, 11, 12, 13 and 14 and the normal group and model group in the present invention are taken. Approx. 5 mm of intestinal segment is taken from the distal end of each colon and is fixed in 10% formalin. The specimens are fixed, dehydrated, wrapped in paraffin and sliced (5 μm). Then tissue HE staining, Masson staining and Fibronectin protein immunohistochemical staining are completed.

Take “His-(D-Ser)-Gln-Gly-Thr-Phe-Thr-Ser-Asp-Lys(Gly-Gly-Ser-Gly-Ser-Gly-γGlu-CO(CH2)18-COOH)-Ser-Lys-Tyr-Leu-Glu-Aib-Lys-Ala-Ala-Gln-Asp-Phe-Val-Glu-Trp-Leu-Lys-Ala-Gly-Gly-Pro-Ser-Ser-Gly-Ala-Pro-Pro-Pro-Ser-NH2 (HXQGTFTSDKSKYLEXKAAQDFVEWLKAGGPSSGAPPPS; D-Ser, Aib, γGlu-C20 diacid lipidation, C-amide; Compound 14; (2)..(2) X=D-Ser; (10)..(10) A side chain of Lys is linked to -Gly-Gly-Ser-Gly-Ser-Gly-AGlu-CO(CH2)18-COOH; (16)..(16) X=Aib)”: in assay [1], the “content of serum IL-6 (FIG. 7)” value is “clearly decreases”; the “content of serum MMP-12 (FIG. 7)” value is listed as “clearly decreases”; the “collagenous fiber of colon tissues, Masson stained slice (FIG. 4A)” value (“collagenous fiber of colon tissues … (FIG. 4A)” for short) was “noticeably decrease”; the “colon Ly-6g+ cells (neutrophile granulocyte infiltration), immunohistochemical staining (FIG. 6)” value (shortened to “colon Ly-6g+ cells”) is listed as “clearly decrease”. Further, in assay [1], the “colon mucous layer α-SMA protein expression, immunohistochemical staining (FIG. 5)” value is recorded as “clearly decreased”; the “colon tissue morphology, HE stained slice (FIG. 3)” value (“colon tissue morphology … (FIG. 3)” below) is recorded as “become intact”; the “blue staining area of colon tissues, area ratio of blue collagen fibers to colon tissue in Masson staining (FIG. 4B)” value is “noticeably decrease”. In assay [2], the “collagenous fiber of colon tissues, Masson stained slice (FIG. 11A)” value (from here on “collagenous fiber … (FIG. 11A)”) is on record as “noticeably decrease”; the “colon mucous layer Fibronectin protein expression, immunohistochemical staining (FIG. 12)” value is “clearly decreased”; the “colon tissue morphology, HE stained slice (FIG. 10)” value (“colon tissue morphology … (FIG. 10)” for short) is on record as “become intact”; the “blue staining area of colon tissues, area ratio of blue collagen fibers to colon tissue in Masson staining (FIG. 11B)” value is “noticeably decrease”. Also, in assay [2], the “content of serum IL-6 (FIG. 13)” value was “clearly decreases” and the “content of serum MMP-8 (FIG. 13)” value was “clearly decreases”.

Regarding “His-(D-Ser)-Gln-Gly-Thr-Phe-Thr-Ser-Asp-Lys(Gly-Gly-Ser-Gly-Ser-Gly-γGlu-CO(CH2)18-COOH)-Ser-Lys-Tyr-Leu-Glu-Aib-Lys-Ala-Ala-Gln-Asp-Phe-Val-Glu-Trp-Leu-Lys-Ala-Gly-Gly-Pro-Ser-Ser-Gly-Ala-Pro-Pro-Pro-Ser (HXQGTFTSDKSKYLEXKAAQDFVEWLKAGGPSSGAPPPS; D-Ser, Aib, γGlu-C20 diacid lipidation; Compound 13; (2)..(2) X=D-Ser; (10)..(10) A side chain of Lys is linked to -Gly-Gly-Ser-Gly-Ser-Gly-AGlu-CO(CH2)18-COOH; (16)..(16) X=Aib)”, in assay [1], the “content of serum IL-6 (FIG. 7)” value is given as “clearly decreases”; the “content of serum MMP-12 (FIG. 7)” value is recorded as “clearly decreases”; the “collagenous fiber of colon tissues … (FIG. 4A)” value was “noticeably decrease”; the “colon Ly-6g+ cells” value is “clearly decrease”. Moreover, in assay [1], the “colon mucous layer α-SMA protein expression, immunohistochemical staining (FIG. 5)” value is on record as “clearly decreased”; the “colon tissue morphology … (FIG. 3)” value is “become intact”; the “blue staining area of colon tissues, area ratio of blue collagen fibers to colon tissue in Masson staining (FIG. 4B)” value is on record as “noticeably decrease”. Further, in assay [2], the “collagenous fiber … (FIG. 11A)” value was “noticeably decrease”; the “colon mucous layer Fibronectin protein expression, immunohistochemical staining (FIG. 12)” value is listed as “clearly decreased”; the “colon tissue morphology … (FIG. 10)” value was “become intact”; the “blue staining area of colon tissues, area ratio of blue collagen fibers to colon tissue in Masson staining (FIG. 11B)” value is reported as “noticeably decrease”. In addition, in assay [2], the “content of serum IL-6 (FIG. 13)” value was “clearly decreases” and the “content of serum MMP-8 (FIG. 13)” value is on record as “clearly decreases”.

In the case of “His-Aib-Gln-Gly-Thr-Phe-Thr-Ser-Asp-Lys(PEG2-PEG2-γGlu-CO(CH2)18CO2H)-Ser-Lys-Tyr-Leu-Asp-Glu-Arg-Ala-Ala-Gln-Asp-Phe-Iva-Gln-Trp-Leu-Leu-Asp-Gly-Gly-Pro-Ser-Ser-Gly-Aib-Pro-Pro-Pro-Ser-NH2 (H[Aib]QGTFTSDK([PEG2′-PEG2′-γGlu-C20 diacid])SKYLDERAAQDF[Iva]QWLLDGGPSSG[Aib]PPPS-NH2) [Compound 8]”, in assay [1], the “content of serum IL-6 (FIG. 7)” value is “clearly decreases”; the “content of serum MMP-12 (FIG. 7)” value is given as “clearly decreases”; the “collagenous fiber of colon tissues … (FIG. 4A)” value is given as “noticeably decrease”; the “colon Ly-6g+ cells” value is listed as “clearly decrease”. Further, in assay [1], the “colon mucous layer α-SMA protein expression, immunohistochemical staining (FIG. 5)” value is “clearly decreased”; the “colon tissue morphology … (FIG. 3)” value was “become intact”; the “blue staining area of colon tissues, area ratio of blue collagen fibers to colon tissue in Masson staining (FIG. 4B)” value was “noticeably decrease”. Also, in assay [2], the “collagenous fiber … (FIG. 11A)” value is “noticeably decrease”; the “colon mucous layer Fibronectin protein expression, immunohistochemical staining (FIG. 12)” value is “clearly decreased”; the “colon tissue morphology … (FIG. 10)” value is reported as “become intact”; the “blue staining area of colon tissues, area ratio of blue collagen fibers to colon tissue in Masson staining (FIG. 11B)” value was “noticeably decrease”. In addition, in assay [2], the “content of serum IL-6 (FIG. 13)” value is reported as “clearly decreases” and the “content of serum MMP-8 (FIG. 13)” value is listed as “clearly decreases”.
